Patent EP3811940B1, “SUBSTITUTED 4,5'-BITHIAZOLES AS INHIBITORS OF THE HUMAN DNA TOPOISOMERASE II” (Kemijski Institut, priority 2019, dated 2021)
“And” between values parts separate entries of the source, which are not always exact repeats. Equal entries are not always repeated.

Columns and labels:
human topo IIα = target: T1, human topo IIα (Homo sapiens, UniProt P11388); experiment: competitive ATPase assay at different ATP concentrations; type: biochemical
T1 construct: purchased Inspiralis (Norwich, UK)
T1 sequence (P11388 whole entry): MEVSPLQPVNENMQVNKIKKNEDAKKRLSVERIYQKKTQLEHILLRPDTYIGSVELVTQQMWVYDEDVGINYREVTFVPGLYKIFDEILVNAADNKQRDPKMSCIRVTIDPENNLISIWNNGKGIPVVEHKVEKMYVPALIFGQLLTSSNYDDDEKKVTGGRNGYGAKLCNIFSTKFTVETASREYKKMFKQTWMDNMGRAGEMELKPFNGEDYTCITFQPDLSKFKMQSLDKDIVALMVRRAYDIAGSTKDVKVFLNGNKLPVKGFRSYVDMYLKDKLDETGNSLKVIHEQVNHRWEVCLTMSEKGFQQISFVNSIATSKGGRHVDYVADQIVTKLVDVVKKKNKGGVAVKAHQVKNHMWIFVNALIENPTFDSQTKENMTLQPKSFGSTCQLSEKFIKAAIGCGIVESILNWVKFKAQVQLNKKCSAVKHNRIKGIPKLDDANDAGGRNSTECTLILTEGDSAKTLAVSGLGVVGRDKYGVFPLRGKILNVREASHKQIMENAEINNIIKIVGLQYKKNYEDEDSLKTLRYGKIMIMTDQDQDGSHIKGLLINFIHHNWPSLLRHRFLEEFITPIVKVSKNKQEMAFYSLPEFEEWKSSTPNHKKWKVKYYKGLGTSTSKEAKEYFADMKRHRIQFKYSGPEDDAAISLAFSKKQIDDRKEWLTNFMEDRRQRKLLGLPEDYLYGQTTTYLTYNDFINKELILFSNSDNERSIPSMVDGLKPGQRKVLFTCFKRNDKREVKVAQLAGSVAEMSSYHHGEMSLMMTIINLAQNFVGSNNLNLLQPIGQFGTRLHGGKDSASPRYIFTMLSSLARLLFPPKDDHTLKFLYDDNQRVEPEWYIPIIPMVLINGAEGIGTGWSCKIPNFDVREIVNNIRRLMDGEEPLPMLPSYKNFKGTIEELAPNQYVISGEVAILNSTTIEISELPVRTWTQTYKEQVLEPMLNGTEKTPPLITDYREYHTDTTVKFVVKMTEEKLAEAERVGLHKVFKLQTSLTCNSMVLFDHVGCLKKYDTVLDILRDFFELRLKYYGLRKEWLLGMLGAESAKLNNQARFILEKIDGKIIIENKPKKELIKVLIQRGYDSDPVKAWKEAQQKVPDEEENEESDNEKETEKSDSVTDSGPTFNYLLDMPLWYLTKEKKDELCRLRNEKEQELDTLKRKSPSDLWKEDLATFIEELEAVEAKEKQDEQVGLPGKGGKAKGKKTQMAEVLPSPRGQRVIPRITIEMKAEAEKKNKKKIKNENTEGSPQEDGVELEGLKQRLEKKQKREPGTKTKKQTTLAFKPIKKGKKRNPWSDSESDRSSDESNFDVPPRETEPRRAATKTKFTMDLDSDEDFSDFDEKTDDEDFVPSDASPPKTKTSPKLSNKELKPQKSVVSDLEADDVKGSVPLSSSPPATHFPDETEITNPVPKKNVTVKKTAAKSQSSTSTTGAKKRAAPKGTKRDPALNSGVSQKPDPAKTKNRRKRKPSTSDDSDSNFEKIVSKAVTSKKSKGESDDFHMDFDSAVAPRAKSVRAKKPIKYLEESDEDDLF
Procedure: Then, we performed the competitive ATPase assay for compound 1, to investigate how our class of compounds affects the ATP hydrolysis in dependence of ATP concentration. Assay was performed at 8 different concentrations of ATP and compound 1. […] The assay was carried out in two parallels. […] In addition, we also calculated the IC50 values of compound 1 vs. different concentrations of the ATP.
Compound were analyzed using a linked ATPase assay in which the ADP produced by the hydrolysis of ATP leads to the conversion of NADH to NAD by a pyruvate kinase/lactate dehydrogenase mix. The disappearance of NADH was monitored at 340 nm. A mix of the assay buffer (5 µL of 10X buffer per assay: final conc. 20 mM Tris-HCl, 5 mM magnesium acetate, 125 mM potassium acetate, 2 mM DTT, pH 7.9), linear pBR322 (1.5 µL of 1mg/mL per assay), phosphoenol pyruvate (0.5 µL of 80 mM per assay), pyruvate kinase/lactate dehydrogenase mix (0.75 µL per assay), NADH (1 µL of 20 mM per assay), DMSO (1.5 µL per assay), and water (32.85 µL per assay) was made. 41.1 µL of this mixture was aliquoted into the wells of a 384-well microtiter plate. 0.5 µL of DMSO or the investigated compound were added to the wells and mixed. 5 µL of the dilution buffer or human topo IIα (200 nM stock giving the 12 nM final concentration) were then added and mixed. A pre-run was done before the run was started by adding 3.4 µL of the appropriate concentration of ATP and the OD340 monitored for up to 35 minutes. Assays were performed at 37 °C. Two negative controls (4 % DMSO and dilution buffer without enzyme) were run in the presence of 2 mM ATP. This assay was performed at 8 different concentrations of the ATP (0.025, 0.05, 0.075, 0.1, 0.25, 0.5, 0.75 and 1 mM). Assays were performed at 3.9, 31, 50, 75 and 100 µM final concentrations of the investigated compound 1. The final DMSO concentration in all the reactions was 4 % (v/v). Assay was performed in duplicate. The human topo competitive ATPase assay was performed in collaboration with Inspiralis (Norwich, UK).

[1] = target: T2, human topo IIα ATPase domain (Homo sapiens, UniProt P11388); experiment: microscale thermophoresis (MST) binding; conditions: three independent runs; initial fluorescence; labelled protein 20 nM
T2 construct: The ATPase fragment with 1-453 amino acid residues was purchase from Inspiralis; purchased Inspiralis
T2 sequence (P11388 1-453): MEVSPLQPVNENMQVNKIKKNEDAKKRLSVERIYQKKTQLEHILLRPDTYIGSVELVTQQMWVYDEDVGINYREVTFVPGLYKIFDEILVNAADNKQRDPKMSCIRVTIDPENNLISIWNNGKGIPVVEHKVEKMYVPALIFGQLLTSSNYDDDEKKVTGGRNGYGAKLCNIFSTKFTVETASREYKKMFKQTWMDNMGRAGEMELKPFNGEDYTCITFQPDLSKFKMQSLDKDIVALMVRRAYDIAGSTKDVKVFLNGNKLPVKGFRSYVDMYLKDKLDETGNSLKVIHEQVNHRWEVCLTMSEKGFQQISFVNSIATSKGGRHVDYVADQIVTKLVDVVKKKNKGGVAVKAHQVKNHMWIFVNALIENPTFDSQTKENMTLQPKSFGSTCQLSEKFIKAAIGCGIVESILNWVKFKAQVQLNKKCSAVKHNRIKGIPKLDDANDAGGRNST
Text: Figure 2. […] The graph shown is representative of two independent experiments.

HepG2 cells [2] = experiment: cell cycle analysis by flow cytometry (Hoechst 33342); type: cell-based, human; conditions: 24h, mean ± SD of 3; for S phase, percent of HepG2 cells: listed as head printed "5" in Table 7
Procedure: (§1) Figure 4. Cell cycle analysis, cell proliferation and induction of the DNA double stand breaks (DBS) by the selected substituted 4,5'-bithiazole compound 1. (A) Percent of HepG2 cells in certain phases of cell cycle after 24h treatment to compound 1 at 50 µM and 10 µM in comparison with the solvent control (0). […] (B) Percent of proliferative cells after 24h treatment to compound 1 at 50 µM and 10 µM determined with the Ki67 antibody. (C) Results of the analyses of the induction of the DNA double strand breaks by γ-H2AX assay. Distribution of the fluorescent signals of individual cells in the samples is shown. Data are presented as quantile box plots. The edges of the box represent the 25th and 75th percentiles, the median is a solid line through the box, and the bars represent 95% confidence intervals. In each sample, 10^4 events were recorded, and experiments were repeated three times independently. Significant difference between treated cells and the solvent control (0) is indicated by * p < 0.05, ** p < 0.01 and *** p < 0.001.
(§2) After the exposure floating and adherent cells were collected by trypsinization. For the fixation the cells were centrifuged at 800 rpm, 4°C for 5 min, washed twice with ice cold PBS, resuspended in 0.5 mL cold PBS and ethanol (1.5 mL) was added drop wise into the cell pellet, while vortexing. The cells were fixed at 4°C overnight and stored at -20°C until analysis. Fixed cells were centrifuged at 1200 rpm for 10 min, washed with ice cold 1× PBS and labelled with Anti-H2AX pS139 antibodies (50-fold diluted) for DNA DBS analysis, Ki67 antibodies (50-fold diluted) for proliferation analysis and Hoechst 33342 dye for cell cycle analysis according to the manufacturer's protocol. Flow cytometric analysis was carried out on a MACSQuant Analyzer 10 (Miltenyi Biotech, Germany). FITC intensity, corresponding to proliferation marker Ki67+, was detected in the FITC-A channel and cell cycle analysis was detected in VioBlueA channel. APC intensity, corresponding to DSBs, was detected in the APC-A channel. Unspecific binding was checked with rea-FITC and rea-APC antibodies (Miltenyi Biotec, Germany). In each sample, 10 000 events were recorded. Independent experiments were repeated three times. […] For further analysis the raw data was exported from MACSQuantify software and it was converted to. fcs format and further to the .csv format. For the yH2AX foci analysis the statistical significance between treated groups and the vehicle control was determined with a linear mixed-effects model. Calculations were done with the statistical program R [49] and its packages reshape and nlme.

HepG2 cells [3] = experiment: γ-H2AX assay, induction of DNA double strand breaks; type: cell-based, human; conditions: 24h, result in words
Procedure: as §1, with “The edges of the box represent the 25th and 75th percentiles, the median is a solid line through the box, and the bars represent 95% confidence intervals.” left out, “Significant difference between treated cells and the solvent control (0) is indicated by * p < 0.05, ** p < 0.01 and *** p < 0.001.” left out
After the exposure floating and adherent cells were collected by trypsinization. […] FITC intensity, corresponding to proliferation marker Ki67+, was detected in the FITC-A channel and cell cycle analysis was detected in VioBlueA channel. APC intensity, corresponding to DSBs, was detected in the APC-A channel. […] In each sample, 10 000 events were recorded. […] For the yH2AX foci analysis the statistical significance between treated groups and the vehicle control was determined with a linear mixed-effects model. […]

HepG2 cells [4] = experiment: cell proliferation, Ki-67 marker, flow cytometry; type: cell-based, human; conditions: 24h
Procedure: as §2, with “For” for “For further analysis the raw data was exported from MACSQuantify software and it was converted to. fcs format and further to the .csv format. For”, “Calculations were done with the statistical program R [49] and its packages reshape and nlme.” left out

IC50 (human topo IIα; c(ATP) 0.025): 3.8 µM
IC50 (human topo IIα; c(ATP) 0.05): 8.8 µM
IC50 (human topo IIα; c(ATP) 0.075): 14.8 µM
IC50 (human topo IIα; c(ATP) 0.1): 9.4 µM
IC50 (human topo IIα; c(ATP) 0.25): 18.3 µM
IC50 (human topo IIα; c(ATP) 0.5): 15.2 µM
IC50 (human topo IIα; c(ATP) 0.75): 17.8 µM
IC50 (human topo IIα; c(ATP) 1): 21.6 µM
IC50 (human topo IIα; c(ATP) 2): 25.4 µM
Kd [1]: 50.6 ± 7.6 µM
SMILES: Cc1nc(N)sc1-c1csc(Nc2ccc(C(F)(F)F)cc2)n1 [Compound 1, 4'-methyl-N2-(4-(trifluoromethyl)phenyl)-[4,5'-bithiazole]-2,2'-diamine]
>G1, G2<, percent of HepG2 cells (HepG2 cells [2]; 10 µM): 1.2 ± 1.0%
G1 phase, percent of HepG2 cells (HepG2 cells [2]; 10 µM): 56.5% and 56.5 ± 6.4%
G2 phase, percent of HepG2 cells (HepG2 cells [2]; 10 µM): 24.8 ± 4.5%
S phase, percent of HepG2 cells (HepG2 cells [2]; 10 µM): 17.5% and 17.5 ± 1.1^∗∗∗ %
>G1, G2<, percent of HepG2 cells (HepG2 cells [2]; 50 µM): 1.4 ± 0.6%
G1 phase, percent of HepG2 cells (HepG2 cells [2]; 50 µM): 60.6% and 60.6 ± 7.0^∗ %
G2 phase, percent of HepG2 cells (HepG2 cells [2]; 50 µM): 26.2 ± 2.5%
S phase, percent of HepG2 cells (HepG2 cells [2]; 50 µM): 17.5% and 11.8 ± 4.5^∗∗ %
DNA DSB formation (HepG2 cells [3]; 10 µM): no increase
DNA DSB formation (HepG2 cells [3]; 50 µM): no increase
Percent of cell proliferation (Ki-67 positive) (HepG2 cells [4]; 10 µM): 88.6%
Percent of cell proliferation (Ki-67 positive) (HepG2 cells [4]; 50 µM): 81.3%
